Measured values taken from US9725445B2, “Cycloalkyl nitrile pyrazolo pyridones as Janus kinase inhibitors” (Merck Sharp & Dohme Corp., priority 2013, dated 2017).

Assays:
JAK2 = JAK2 (Homo sapiens (Human), UniProt O60674); assay: Jak biochemical HTRF assay, JAK2; conditions: HTRF biochemical assay, recombinant GST-tagged catalytic domain; read-out: JAK2 IC50
JAK1 = JAK1 (Homo sapiens (Human), UniProt P23458); assay: Jak biochemical HTRF assay, JAK1; conditions: HTRF biochemical assay, recombinant GST-tagged catalytic domain; read-out: JAK1 IC50
Chain of JAK1 (P23458 875-1153): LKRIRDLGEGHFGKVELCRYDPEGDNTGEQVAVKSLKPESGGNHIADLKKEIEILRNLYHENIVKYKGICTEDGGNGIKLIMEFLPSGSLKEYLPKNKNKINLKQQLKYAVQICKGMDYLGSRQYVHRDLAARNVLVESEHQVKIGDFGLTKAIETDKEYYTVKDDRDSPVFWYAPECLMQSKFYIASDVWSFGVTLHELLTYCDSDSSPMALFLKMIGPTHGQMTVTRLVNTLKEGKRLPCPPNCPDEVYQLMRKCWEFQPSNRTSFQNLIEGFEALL

Chain of JAK2 (O60674 849-1124): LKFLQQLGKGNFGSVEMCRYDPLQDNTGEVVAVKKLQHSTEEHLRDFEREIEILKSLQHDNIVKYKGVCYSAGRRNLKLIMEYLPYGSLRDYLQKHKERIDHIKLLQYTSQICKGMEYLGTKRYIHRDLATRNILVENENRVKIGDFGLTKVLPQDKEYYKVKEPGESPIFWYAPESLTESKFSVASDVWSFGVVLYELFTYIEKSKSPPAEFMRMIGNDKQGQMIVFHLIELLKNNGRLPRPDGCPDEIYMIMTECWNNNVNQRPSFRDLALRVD

| Structure (SMILES) | IC50 (JAK2) [nM] | IC50 (JAK1) [nM] |
| --- | --- | --- |
| N#C[C@H]1C[C@H](N2CCC2)CC[C@@H]1n1nc(Nc2ccc(OC(F)(F)F)cc2)c2c(=O)[nH]ccc21 [Example 5-23, (1S,2S,5R)-5-(azetidin-1-yl)-2-(4-oxo-3-((4-(trifluoromethoxy)phenyl)amino)-4,5-dihydro-1H-pyrazolo[4,3-c]pyridin-1-yl)cyclohexanecarbonitrile] | 31 | 0.88 |
| N#C[C@H]1CCCC[C@@H]1n1nc(Nc2ccc3c(c2)CN(CC2CCCC2)S3(=O)=O)c2c(=O)[nH]ccc21 [Example 3-65, (1S,2S)-2-(3-{[2-(cyclopentylmethyl)-1,1-dioxido-2,3-dihydro-1,2-benzisothiazol-5-yl]amino}-4-oxo-4,5-dihydro-1H-pyrazolo[4,3-c]pyridin-1-yl)cyclohexanecarbonitrile] | 0.65 | 0.12 |
| N#C[C@H]1CCCC[C@@H]1n1nc(Nc2ccc(C3CCCN3)cc2)c2c(=O)[nH]ccc21 (single isomer, unassigned) [Example 3-72, (1S,2S)-2-[4-oxo-3-({4-[(2R or 2S)-pyrrolidin-2-yl]phenyl}amino)-4,5-dihydro-1H-pyrazolo[4,3-c]pyridin-1-yl]cyclohexanecarbonitrile] | 0.5 | 0.45 |
| Cc1cn(Cc2cccc(Nc3nn([C@H]4CCCC[C@@H]4C#N)c4cc[nH]c(=O)c34)c2)nn1 [Example 3-37, (1S,2S)-2-[3-({3-[(4-methyl-1H-1,2,3-triazol-1-yl)methyl]phenyl}amino)-4-oxo-4,5-dihydro-1H-pyrazolo[4,3-c]pyridin-1-yl]cyclohexanecarbonitrile] | 2.1 | 0.18 |
| Cc1cc(Nc2nn([C@H]3CCCC[C@@H]3C#N)c3cc[nH]c(=O)c23)ccc1C(C(C)C)n1ccnn1 (single isomer, unassigned) [Example 15-37, (1S,2S)-2-[3-({3-methyl-4-[(1S or 1R)-2-methyl-1-(1H-1,2,3-triazol-1-yl)propyl]phenyl}amino)-4-oxo-4,5-dihydro-1H-pyrazolo[4,3-c]pyridin-1-yl]cyclohexanecarbonitrile] | 0.25 | 0.066 |
| CC(C)N1Cc2cc(Nc3nn([C@H]4CCCC[C@@H]4C#N)c4cc[nH]c(=O)c34)ccc2C1C (single isomer, unassigned) [Example 19-1, (1S,2S)-2-(3-(((S or R)-2-isopropyl-1-methylisoindolin-5-yl)amino)-4-oxo-4,5-dihydro-1H-pyrazolo[4,3-c]pyridin-1-yl)cyclohexanecarbonitrile] | 0.89 | 0.91 |
| C[C@H](NC1CCC(n2nc(Nc3ccc(Cl)cc3)c3c(=O)[nH]ccc32)C(C#N)C1)C1CC1 (stereo in doubt) [Example 4-2, (1S,2S,5R)-2-(3-((4-Chlorophenyl)amino)-4-oxo-4,5-dihydro-1H-pyrazolo[4,3-c]pyridin-1-yl)-5-(((S)-1-cyclopropylethyl)amino)cyclohexanecarbonitrile] | > 1500 | 84 |
| CC1(N2Cc3cc(Nc4nn([C@H]5CCCC[C@@H]5C#N)c5cc[nH]c(=O)c45)ccc3S2(=O)=O)CCOCC1 [Example 15-64, (1S,2S)-2-(3-{[2-(4-methyltetrahydro-2H-pyran-4-yl)-1,1-dioxido-2,3-dihydro-1,2-benzisothiazol-5-yl]amino}-4-oxo-4,5-dihydro-1H-pyrazolo[4,3-c]pyridin-1-yl)cyclohexanecarbonitrile] | 0.17 | 0.069 |
| CC1c2cc(Nc3nn([C@H]4CCCC[C@@H]4C#N)c4cc[nH]c(=O)c34)ccc2S(=O)(=O)N1C (single isomer, unassigned) [Example 3-126, (1S,2S)-2-(3-(((R or S)-2,3-dimethyl-1,1-dioxido-2,3-dihydrobenzo[d]isothiazol-5-yl)amino)-4-oxo-4,5-dihydro-1H-pyrazolo[4,3-c]pyridin-1-yl)cyclohexanecarbonitrile] | 2.5 | 0.077 |
| N#C[C@H]1CCCC[C@@H]1n1nc(Nc2ccc(C3CCNCC3)cc2)c2c(=O)[nH]ccc21 [Example 15-25, (1S,2S)-2-{4-oxo-3-[(4-piperidin-4-ylphenyl)amino]-4,5-dihydro-1H-pyrazolo[4,3-c]pyridin-1-yl}cyclohexanecarbonitrile] | 0.98 | 0.48 |
| C[C@H](NC1CCC(n2nc(Nc3ccc(Cl)cc3)c3c(=O)[nH]ccc32)C(C#N)C1)C1CC1 (stereo in doubt) [Example 4-3, (1R,2R,5R)-2-(3-((4-Chlorophenyl)amino)-4-oxo-4,5-dihydro-1H-pyrazolo[4,3-c]pyridin-1-yl)-5-(((S)-1-cyclopropylethyl)amino)cyclohexanecarbonitrile] | 13 | 0.3 |
| CNS(=O)(=O)c1ccc(Nc2nn([C@H]3CCCC[C@@H]3C#N)c3cc[nH]c(=O)c23)cc1 [Example 3-144, 4-({1-[(1S,2S)-2-cyanocyclohexyl]-4-oxo-4,5-dihydro-1H-pyrazolo[4,3-c]pyridin-3-yl}amino)-N-methylbenzenesulfonamide] | 0.59 | 0.099 |
| N#C[C@H]1CCCC[C@@H]1n1nc(Nc2ccc3c(c2)CN(C(=O)c2cnc(N4CCCCC4)cn2)C3)c2c(=O)[nH]ccc21 [Example 3-158, (1S,2S)-2-[4-oxo-3-({2-[(5-piperidin-1-ylpyrazin-2-yl)carbonyl]-2,3-dihydro-1H-isoindol-5-yl}amino)-4,5-dihydro-1H-pyrazolo[4,3-c]pyridin-1-yl]cyclohexanecarbonitrile] | 1.5 | 0.98 |
| N#C[C@H]1CCCC[C@@H]1n1nc(Nc2ccc(Cl)cc2)c2c(=O)[nH]ccc21 [Example 3-91, (1S,2S)-2-(3-((4-chlorophenyl)amino)-4-oxo-4,5-dihydro-1H-pyrazolo[4,3-c]pyridin-1-yl)cyclohexanecarbonitrile] | 10.3 | 0.45 |
| N#C[C@H]1CCCC[C@@H]1n1nc(Nc2ccc(CNC(=O)c3cnco3)cc2)c2c(=O)[nH]ccc21 [Example 3-29, N-[4-({1-[(1S,2S)-2-cyanocyclohexyl]-4-oxo-4,5-dihydro-1H-pyrazolo[4,3-c]pyridin-3-yl}amino)benzyl]-1,3-oxazole-5-carboxamide] | 1.5 | 0.32 |
| CN1Cc2cc(Nc3nn([C@H]4CCC[C@@H]4C#N)c4cc[nH]c(=O)c34)ccc2S1(=O)=O [Example 3-102, (1S,2S)-2-{3-[(2-methyl-1,1-dioxido-2,3-dihydro-1,2-benzisothiazol-5-yl)amino]-4-oxo-4,5-dihydro-1H-pyrazolo[4,3-c]pyridin-1-yl}cyclopentanecarbonitrile] | 0.66 | 0.051 |
| N#C[C@H]1CCCC[C@@H]1n1nc(Nc2ccc3c(c2)CN(C2CCSCC2)C3=O)c2c(=O)[nH]ccc21 [Example 15-60, (1S,2S)-2-(4-oxo-3-{[1-oxo-2-(tetrahydro-2H-thiopyran-4-yl)-2,3-dihydro-1H-isoindol-5-yl]amino}-4,5-dihydro-1H-pyrazolo[4,3-c]pyridin-1-yl)cyclohexanecarbonitrile] | 0.51 | 0.11 |
| CC1(C)C(=O)Nc2cc(Nc3nn([C@H]4CCCC[C@@H]4C#N)c4cc[nH]c(=O)c34)ccc21 [Example 15-7, (1S,2S)-2-{3-[(3,3-dimethyl-2-oxo-2,3-dihydro-1H-indol-6-yl)amino]-4-oxo-4,5-dihydro-1H-pyrazolo[4,3-c]pyridin-1-yl}cyclohexanecarbonitrile] | 1.4 | 0.11 |
| N#C[C@H]1CCC[C@@H]1n1nc(Nc2ccc3c(c2)CN(CC(F)(F)F)C3=O)c2c(=O)[nH]ccc21 [Example 3-97, (1S,2S)-2-(4-oxo-3-{[1-oxo-2-(2,2,2-trifluoroethyl)-2,3-dihydro-1H-isoindol-5-yl]amino}-4,5-dihydro-1H-pyrazolo[4,3-c]pyridin-1-yl)cyclopentanecarbonitrile] | 0.44 | 0.082 |
| CN(C)[C@H]1CC[C@H](n2nc(Nc3ccc(Cl)c(F)c3)c3c(=O)[nH]ccc32)[C@@H](C#N)C1 [Example 5-2, (1S,2S,5S)-2-(3-((4-Chloro-3-fluorophenyl)amino)-4-oxo-4,5-dihydro-1H-pyrazolo[4,3-c]pyridin-1-yl)-5-(dimethylamino)cyclohexanecarbonitrile] | 14 | 0.6 |
| N#C[C@H]1CCCC[C@@H]1n1nc(Nc2ccc(F)c(CN)c2)c2c(=O)[nH]ccc21 [Example 6-2, (1S,2S)-2-(3-((3-(aminomethyl)-4-fluorophenyl)amino)-4-oxo-4,5-dihydro-1H-pyrazolo[4,3-c]pyridin-1-yl)cyclohexanecarbonitrile] | 2.3 | 0.75 |
| N#C[C@H]1CCCC[C@@H]1n1nc(Nc2ccc(-c3ncco3)cc2)c2c(=O)[nH]ccc21 [Example 15-1, (1S,2S)-2-(3-{[4-(1,3-Oxazol-2-yl)phenyl]amino}-4-oxo-4,5-dihydro-1H-pyrazolo[4,3-c]pyridin-1-yl)cyclohexanecarbonitrile] | 1.9 | 0.13 |
| CC1(O)CN([C@@H]2CC[C@H](n3nc(Nc4ccc(Cl)cc4)c4c(=O)[nH]ccc43)[C@@H](C#N)C2)C1 [Example 5-21, (1S,2S,5R)-2-(3-((4-chlorophenyl)amino)-4-oxo-4,5-dihydro-1H-pyrazolo[4,3-c]pyridin-1-yl)-5-(3-hydroxy-3-methylazetidin-1-yl)cyclohexanecarbonitrile] | 6.5 | 0.35 |
| N#C[C@H]1CCCC[C@@H]1n1nc(Nc2ccnc(F)c2)c2c(=O)[nH]ccc21 [Example 3-2, (1S,2S)-2-{3-[(2-fluoropyridin-4-yl)amino]-4-oxo-4,5-dihydro-1H-pyrazolo[4,3-c]pyridin-1-yl}cyclohexanecarbonitrile] | 5.4 | 0.4 |
| CC1(c2ccc(Nc3nn([C@H]4CCCC[C@@H]4C#N)c4cc[nH]c(=O)c34)cc2)COC1 [Example 15-13, (1S,2S)-2-(3-{[4-(3-methyloxetan-3-yl)phenyl]amino}-4-oxo-4,5-dihydro-1H-pyrazolo[4,3-c]pyridin-1-yl)cyclohexanecarbonitrile] | 0.72 | 0.22 |
